Test results from patent US4374841A, “Pyridoxine derivatives, and use in therapeutics” (S. A. Labaz N.V., priority 1980, dated 1983).
Where two headings read alike, the source gives them in different places.

What was measured:
mice = assay: Central depressant properties (passage of mice through a light ray); type: in vivo; details: Mus musculus, po, 0.5 h, intragastric, 30 minutes after administration, recorded over 15 minutes, dose with depressant action in 50% of the animals, read-out: AD50 (the source's name)
Description: D. Central depressant properties
Thirty minutes after the intragastric administration of a dose of the compound to be studied, batches of mice were placed in a container through which a ray of light was projected. By means of a photoelectric cell, a record was made of the number of animals passing through the light ray over a period of 15 minutes. The same test was performed with control animals.
The AD50 was then calculated i.e. the dose of the compound under study which provoked a depressant action in 50% of the animals.

α-receptors = assay: Antiadrenergic properties: anti-α effect (reduction of epinephrine-increased blood-pressure); type: in vivo, dog; details: intravenous
Description: (§1) The purpose of this test was to determine the capacity of the compounds under study to reduce epinephrine-increased blood-pressure (anti-α effect) and epinephrine-accelerated heart-rate (anti-β effect) in the dog previously anaesthetized with pentobarbital (30 mg/kg) and atropinized (1 mg/kg).
After that, the dose of epinephrine so determined was administered followed by a dose, by intravenous route, of the compound to be studied. The percentage of reduction of hypertension produced by the compound under study in comparison with the hypertension previously obtained (about 100 mm.Hg) was then registered.
(§2) In both cases, the results were expressed as follows: […]
(§3) + for a <50%-reduction of the increase in pressure or cardiac frequency
(§4) ++ for a ≥50-reduction of the increase in pressure or cardiac frequency
(§5) +++ for the almost complete supression of the increase in pressure or cardiac frequency.

anaesthetized dog [1] = assay: Hypotension in the anaesthetized dog; type: in vivo; details: 2 mg/kg, intravenous
Description: (a) Hypotension in the anaesthetized dog
The hypotensive effect was determined for at least one hour after the intravenous injection of a dose of the compound under study in the dog previously anaesthetized with pentobarbital (30 mg/kg) and atropinized (1 mg/kg).
Arterial pression was registered on a femoral artery.
The results were expressed as follows: […]
++ for a lasting reduction of about 30% in arterial pressure
+ for a short-lived reduction of about 20% in arterial pressure.

anaesthetized dog [2] = assay: Reserpine-like properties (cardiac frequency and contractility of the myocardium); type: in vivo; details: for change in vivo at 1 mg/kg: Canis lupus familiaris, intravenous, anaesthetized dog
Source text: C. Reserpine-like properties
the increase in cardiac frequency
the increase of (dP/dt) at its maximum, i.e. the increase of the maximum of the derivative of the left ventricular pressure in relation to time.
This derivative thus represented an index of contractility.

β-receptors = assay: Antiadrenergic properties: anti-β effect (reduction of epinephrine-accelerated heart-rate); type: in vivo; details: 10 mg/kg, intravenous, anaesthetized atropinized dog
Description: as §1
The percentage of reduction of the epinephrine-induced acceleration of heart-rate obtained by means of the compounds under study in comparison with the tachycardia previously measured (about 70 beats) was then registered.
as §2, §3, §4, §5

Okamoto rat = assay: Hypotension in the Okamoto rat; type: in vivo
Description: (b) Hypotension in the Okamoto rat
In this trial, the rats used belonged to a race specifically bred to produce animals having high blood-pressure. The arterial pressure of these rats was determined (about 180 mm.Hg) at the beginning of the test and a dose of the compound to be studied was then administered.
The decrease in arterial pressure was registered every hour for 6 hours after the administration of the compound in question.

Acute toxicity in rats = type: in vivo; details: rat, in vivo
Source text: (§6) Acute toxicity tests were also undertaken in rats and mice with compounds of the invention.

rats = assay: Acute toxicity in rats; type: in vivo; details: intragastric route, fumarate form
Source text: as §6

Acute toxicity in mice = details: mouse, in vivo
Source text: as §6

[3] = ip, intraperitoneal route, sesquioxalate form
[4] = po, intragastric route, sesquioxalate form

For Cc1ccccc1OCCNCC(O)COc1c(C)ncc(CO)c1CO (stereo not shown) [Compound A, 4,5-dihydroxymethyl-3-[2-hydroxy-3-(2-methyl-phenoxyethylamino)-propoxy]-2-methyl-pyridine], which ED50 (mice) is on record?
The ED50 was 50 mg/kg.

And the Anti-α effect (α-receptors; 10 mg/kg, anaesthetized atropinized dog, epinephrine)?
Its Anti-α effect is “+++”.

And the “α-antiadrenergic properties at a dose as low as” value (α-receptors; lowest active dose, dog, sesquioxalate)?
The value was 2 mg/kg.

And the “Decrease in arterial pressure” value (anaesthetized dog [1])?
The value was “++ (for a lasting reduction of about 30% in arterial pressure)”.

What about the change in vivo at 1 mg/kg (anaesthetized dog [2]; (dP/dt) maximum, read-out: increase in the contractility of the myocardium) of the same molecule?
Its change in vivo at 1 mg/kg is 10 to 30%.

And the change in vivo at 1 mg/kg (anaesthetized dog [2]; read-out: increase in cardiac frequency)?
The change in vivo at 1 mg/kg was 10 to 30%.

And the “effects on cardiac frequency and contractility after reserpine” value (anaesthetized dog [2]; dog having previously received reserpine)?
The value was “suppressed”.

And the Anti-β effect (β-receptors)?
Its Anti-β effect is “+ (for a <50%-reduction of the increase in pressure or cardiac frequency)”.

And the “maximum decrease (arterial pressure)” value (Okamoto rat; 25 mg/kg, oral route, acute treatment, initial about 180 mm.Hg)?
Its value is 21 mm.Hg.

What about the minimal effective dose (Okamoto rat; chronic treatment, involving one single administration, read-out: found to be active at a dose as low as) of the same molecule?
The minimal effective dose was 50 mg/kg.

And the “activity in acute treatment (ranking)” value (Okamoto rat; oral route, acute treatment)?
Its value is “the most active in acute treatment”.

What about the minimal effective dose (Okamoto rat; oral route, acute treatment, read-out: provoked hypotension at a dose as low as) of the same molecule?
Its minimal effective dose is 25 mg/kg.

Which LD50 (Acute toxicity in rats; [3]) does the source give for Cc1ccccc1OCCNCC(O)COc1c(C)ncc(CO)c1CO (stereo not shown) [drawing 41, 4,5-Dihydroxymethyl-3-[2-hydroxy-3-(2-methyl-phenoxyethylamino)-propoxy]-2-methyl-pyridine] here?
The LD50 was 320 mg/kg.

And the LD50 (Acute toxicity in rats; iv, fumarate form)?
Its LD50 is 200 mg/kg.

What about the LD50 (Acute toxicity in rats; iv, sesquioxalate form) of the same molecule?
Its LD50 is 170 mg/kg.

What about the LD50 (Acute toxicity in rats; [4]) of the same molecule?
The LD50 was 2200 mg/kg.

What about the LD0 (rats) of the same molecule?
Its LD0 is > 2500 mg/kg.

And the LD50 (Acute toxicity in mice; intravenous route, sesquioxalate form)?
The LD50 was 118 mg/kg.

What about the LD50 (Acute toxicity in mice; [3]) of the same molecule?
The LD50 was 290 mg/kg.

And the LD50 (Acute toxicity in mice; [4])?
The LD50 was 700 mg/kg.

Which LD50 (Acute toxicity in rats; iv, intravenous route (salt form not stated)) does the source give for COc1ccccc1OCCNCC(O)COc1c(C)ncc(CO)c1CO (stereo not shown) [drawing 42] here?
Its LD50 is 245 mg/kg.

What about the LD50 (Acute toxicity in mice; po, intragastric route (salt form not stated)) of the same molecule?
Its LD50 is > 5000 mg/kg.
